Data as given in patent publication US20110076258A1, “METHODS OF MODULATING T CELL- DEPENDENT IMMUNE RESPONSES” (Converge Biotech Inc., priority 2008, published 2011).
Entries after “also recorded” stand apart in the source; their conditions may differ.

Columns and labels:
MAPK = test: Protracted MAPK (p38, Erk) activation after 16 h CD3 stimulation; type: cell-based, mouse; conditions: crt^−/− T cells, CD3 antibodies 16 h
[1] = test system: naïve CD4^+ T cells / CD4^+CD25^+ natural Treg cells; test: Treg differentiation and expansion in vitro (anti-CD3, irradiated splenocytes, IL-2); type: cell-based
Description: Treg cell generation was analyzed after 7-10 days of culture by flow cytometry.

crt^−/− FLC = test: Graft-versus-host disease-like phenotype of crt^−/− fetal liver chimeras; type: in vivo, mouse
Description: Phenotype of crt^−/− FLC before treatment and after daily intravenous treatment with PBS or 6 mM oATP (100 μl) for 2 weeks (see Example 16).
Histopathological evaluation of skin biopsies executed in a blinded fashion. The graphs show selected examples of dramatic results seen with oATP treatment (see Example 16).
Recombinase-deficient Balb/c mice were reconstituted with hematopoietic progenitors from fetal liver of calreticulin (crt)^−/− and +/+E13 embryos (FIG. 21). The phenotype of the resulting crt^−/− fetal liver chimera (FLC), which mimics graft-versus-host disease (GVHD) (see, e.g., Porcellini et al., J Exp Med 203:461-471 (2006)), was assessed at weeks 8, 10 and 12 after transfer and compared to the phenotype of the crt^+/+ FLC at week 12.
crt^+/+ and crt^−/− FLCs received daily intravenous treatment with PBS or 6 mM oATP (100 μL) for two weeks.

[2] = test system: OVA-specific T cell clones; test: Calcium imaging of CD3 responsiveness after pre-stimulation (anergy); type: cell-based, mouse; conditions: pre-incubated 16 h
From the text: (§1) NFAT nuclear translocation without concomitant MAPK activation, which can be obtained by ionomycin treatment, implements a transcriptional program leading to T cell anergy (Macian et al., Cell 109:719-731 (2002)). […] Then, we hypothesized that activation of T cells in the presence of oATP could induce T cell anergy. […] The effect of oATP was not due to altered turn-over of the TCR/CD3 complex at the cell surface, as determined by FACS analysis (data not shown).

ERK = ERK phosphorylation time course after CD3 stimulation, TCR signaling blocked with PP2 at 30 min; type: cell-based, mouse; conditions: added in combination with PP2
Description: After 30 min of stimulation, cells were either left untreated (first panel on the left), or treated with the src-like kinase inhibitor PP2 either alone (second panel) or in combination with oATP (third panel) or ARL (fourth panel).
In order to distinguish between TCR dependent and independent ERK activation, TCR signaling was blocked at 30 min after CD3 activation with the tyrosine kinase inhibitor PP2, which inhibits TCR dependent Ick/fyn src-like kinase activity.

naïve CD4^+ T cells = test: IL-2 ELISA in culture supernatants, plate-bound CD3 and CD28 stimulation; type: cell-based, mouse; conditions: versus untreated cells, 48 h
From the text: An inhibitory effect of oATP on peripheral blood T cell proliferation has been described (Baricordi et al., Blood 87:682-690 (1996)). […] We therefore hypothesize that ATP released from activated T cell is part of an autocrine loop, which plays an essential role in productive T cell activation.

[3] = test system: INS-HA transgenic RAG-2^−/− mice; test: Diabetes by adoptive transfer of TCR-HA CD4 cells; type: in vivo, mouse
Egr2 and Egr3 = test: Real-time PCR of anergy related genes Egr2 and Egr3; type: cell-based, mouse; conditions: 2 h and 16 h after T cell activation
From the text: as §1

[4] = test system: naïve CD4 crt^−/− and crt^+/+ T cells; test: CD62L re-expression after activation with plate bound CD3 and CD28 antibodies (FACS); type: cell-based, mouse; conditions: crt^−/− and wild-type cells, 38 h
Description: FIG. 3: Mitochondrial Ca^2+ uptake during T cell activation leads to ATP synthesis and release. • a) ATP synthesis at different time points after T cell activation with CD3 antibodies in crt^−/− and crt^+/+ sorted naïve CD4^+ T cells (see Example 2). • b) ATP production upon T cell activation in the absence (control) or presence of the ATP synthetase inhibitor oligomycin. • c) FACS profile of CD62L expression on the surface of sorted naïve CD4 crt^−/− and crt^+/+ T cells at 38 h following activation with plate bound CD3 and CD28 antibodies. The same experiment was performed in the presence of oATP. • d) Naïve CD4^+ T cells were stained with the nucleotide binding compound quinacrine (see Example 2). The homogenous cytosolic staining indicates the absence of secretory vesicles containing ATP. • e) Subcellular fractionation of non-stimulated and activated naïve T cells on a continuous sucrose gradient (see Example 2). ATP was detected only in fractions containing also the cytosolic protein Zap-70 and not in those characterized by the small vesicular marker cellubrevin.
This shedding is thought to be inhibited by the P2X receptor antagonist oATP (Gu et al., Blood 92:946-951 (1998)). In vitro T cell activation of CD4 naïve T cells causes shedding of CD62L, which is progressively re-expressed following TCR triggering.

DBA/1 mice = test: Collagen-induced arthritis model of rheumatoid arthritis; type: in vivo, mouse
mouse model of IBD = test: IBD model with insufficient number of adoptively transferred Treg cells; type: in vivo
human T cells = test: Proliferation of CFSE-loaded T cells, plate-bound anti-CD3/28 (FACS); type: cell-based; conditions: 100 μM oATP or 200 μM of PX10 peptide, four days
Description: Our results point to a role for pannexin hemichannels in ATP release in T cells. […] CFSE-loaded human T cells were stimulated with plate-bound anti-CD3/28 antibodies in the presence of 100 μM oATP or 200 μM of PX10 peptide. Four days later, the proliferation was measured by FACS analysis.

mouse T cells = test: IL-2 secretion by ELISA; type: cell-based

Question: Which “prolonged activation of MAPK (p38 MAPK and Erk)” value (MAPK) does the source give for `Nc1ncnc2c1ncn2[C@@H](C=O)O[C@@H](C=O)COP(=O)(O)OP(=O)(O)OP(=O)(O)O` [oATP] here?
Answer: almost completely abolished

Question: And the “Foxp3 by quantitative RT-PCR” value ([1]; first 6 days after anti-CD3 stimulation)?
Answer: progressive upregulation

Question: And the “percentage of CD4^+CD25^highFoxp3^+ Treg cells” value ([1]; naïve CD4^+ T cells, oATP 100 μM)?
Answer: significantly enhanced

Question: And the “expansion of Treg cells, Foxp3 expression level” value ([1]; sorted CD4^+CD25^+ natural Treg cells, oATP 100 μM)?
Answer: higher expression levels of Foxp3

Question: And the “histopathological evaluation of skin biopsies (inflammation and epidermal hyperplasia)” value (crt^−/− FLC; blinded)?
Answer: histological improvement

Question: What about the blepharitis (crt^−/− FLC; daily i.v. 6 mM oATP (100 μL) for two weeks) of the same compound?
Answer: dramatically ameliorated

Question: What about the “responsiveness in calcium imaging of previously stimulated T cells” value [2] of the same compound?
Answer: reduced responsiveness

Question: What about the “cellular damage due to toxicity, PI staining versus untreated” value (crt^−/− CD4^+ T cells) of the same compound?
Answer: did not reveal any difference

Question: What about the “ERK phosphorylation / activity” value (ERK) of the same compound?
Answer: significant inhibition; also recorded: almost completely abolished

Question: And the “IL-2 in the cell culture supernatant” value (naïve CD4^+ T cells)?
Answer: significant reduction

Question: And the Blood glucose ([3]; day 12, twice daily i.v. and i.p. day 1 to 10)?
Answer: normal

Question: And the “CD69^+ cells in the pancreas” value ([3]; mouse, in vivo)?
Answer: undetectable

Question: What about the “TCR-HA^+ cells in the pancreas” value ([3]; mouse, in vivo) of the same compound?
Answer: barely detectable

Question: And the “TCR-HA^+ cells in the spleen” value ([3]; mouse, in vivo)?
Answer: significantly reduced

Question: What about the “pathological findings in the pancreas” value ([3]; mouse, in vivo) of the same compound?
Answer: no relevant pathological findings

Question: What about the “IL-6, IFN-γ and TNF-α on a per-cell basis, ex vivo splenocytes pulsed with HA 110-120 peptide” value ([3]; versus PBS-treated control group) of the same compound?
Answer: significant reduction

Question: What about the “Egr2 and Egr3 transcripts” value (Egr2 and Egr3) of the same compound?
Answer: significant upregulation

Question: What about the “CD62L re-expression after activation” value [4] of the same compound?
Answer: enhanced and identical re-expression efficiency

Question: And the “clinical score variation versus control group” value (DBA/1 mice; 3 mM in 100 μl i.v., after the initial five days of treatment)?
Answer: consistently lower

Question: What about the “collagen-specific antibodies (type II collagen ELISA)” value (DBA/1 mice; versus control mice) of the same compound?
Answer: decreased

Question: And the “Foxp3 expression in Treg cells” value (mouse model of IBD; day 28, daily 100 μl of 3 mM oATP i.v. from day 14)?
Answer: increased

Question: And the bowel inflammation (mouse model of IBD; mouse, in vivo)?
Answer: no signs of bowel inflammation

Question: And the “effector/memory T cells in mesenteric lymph nodes” value (mouse model of IBD; mouse, in vivo)?
Answer: reduced counts

Question: And the “ratio of Treg/EM cells in mesenteric lymph nodes” value (mouse model of IBD; mouse, in vivo)?
Answer: not significantly changed

Question: And the “spleen and mesenteric lymph nodes size” value (mouse model of IBD; mouse, in vivo)?
Answer: no increase

Question: And the T cell proliferation (human T cells)?
Answer: strongly inhibited

Question: And the IL-2 secretion (mouse T cells)?
Answer: strongly inhibited
